{"source": "patent US7807691B2", "about": "“Substituted N-arylpyrrolidines as selective androgen receptor modulators” (Eli Lilly and Company, priority 2005, dated 2010)", "key": {"[1]": {"target": "T1, human AR (androgen receptor) (Homo sapiens, UniProt P10275)", "T1 construct": "expressed in transfected cells; host or cells: 293 cells (293-AR lysate)", "T1 sequence (P10275 1-920)": "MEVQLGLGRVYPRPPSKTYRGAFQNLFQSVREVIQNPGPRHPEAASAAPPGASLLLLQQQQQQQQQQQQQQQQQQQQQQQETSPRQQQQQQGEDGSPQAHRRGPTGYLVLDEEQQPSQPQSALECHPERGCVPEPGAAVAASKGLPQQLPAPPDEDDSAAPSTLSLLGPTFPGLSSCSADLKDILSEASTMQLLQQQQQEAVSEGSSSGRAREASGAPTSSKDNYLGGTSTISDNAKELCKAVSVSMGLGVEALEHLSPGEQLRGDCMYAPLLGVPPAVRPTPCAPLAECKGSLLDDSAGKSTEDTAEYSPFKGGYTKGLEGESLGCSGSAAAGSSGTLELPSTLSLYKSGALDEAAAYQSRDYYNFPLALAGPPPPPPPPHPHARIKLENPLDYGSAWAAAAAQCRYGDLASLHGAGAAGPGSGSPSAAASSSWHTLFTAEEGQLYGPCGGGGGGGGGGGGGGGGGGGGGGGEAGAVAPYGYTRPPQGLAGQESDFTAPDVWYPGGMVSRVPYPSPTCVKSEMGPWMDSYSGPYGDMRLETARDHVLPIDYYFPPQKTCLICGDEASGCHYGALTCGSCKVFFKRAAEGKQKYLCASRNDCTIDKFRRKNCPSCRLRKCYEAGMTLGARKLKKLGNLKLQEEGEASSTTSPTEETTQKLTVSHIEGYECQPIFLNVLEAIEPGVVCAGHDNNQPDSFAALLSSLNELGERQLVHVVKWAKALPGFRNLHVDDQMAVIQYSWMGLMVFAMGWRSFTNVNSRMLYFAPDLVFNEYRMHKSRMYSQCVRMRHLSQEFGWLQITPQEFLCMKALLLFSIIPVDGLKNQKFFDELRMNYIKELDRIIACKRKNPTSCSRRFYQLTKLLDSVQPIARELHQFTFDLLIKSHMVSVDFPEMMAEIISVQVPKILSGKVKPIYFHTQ", "assay": "Steroid hormone nuclear receptor binding assay (AR binding)", "conditions": "AR binding Ki (nM), 293-AR cell lysate, 3H-methyltrienolone competition", "protocol": "Cell lysates from 293 cells overexpressing human GR (glucocorticoid receptor), AR (androgen receptor), MR (mineralocorticoid receptor) or PR (progesterone receptor) are used for competition binding assays to determine Ki values for test compounds. Briefly, competition binding assays are run in a buffer containing 20 mM Hepes, pH 7.6, 0.2 mM EDTA, 75 mM NaCl, 1.5 mM MgCl2, 20% glycerol, 20 mM sodium molybdate, 0.2 mM DTT, 20 ug/ml aprotinin and 20 ug/ml leupeptin, using either 0.3 nM ^3H-dexamethasone for GR binding, 0.36 nM ^3H-methyltrienolone for AR binding, 0.25 nM ^3H-aldosterone for MR binding, or 0.29 nM ^3H-methyltrienolone for PR binding, and either 20 ug 293-GR lysate, 22 ug 293-AR lysate, 20 ug 293-MR lysate or 40 ug 293-PR lysate per well. Competing compounds are added at various concentrations ranging from about 0.01 nM to 10 μM. Non-specific binding is determined in the presence of 500 nM dexamethasone for GR binding, 500 nM aldosterone for MR binding, or 500 nM methyltrienolone for AR and PR binding. The binding reaction (140 μl) is incubated for overnight at 4° C., then 70 μl of cold charcoal-dextran buffer (containing per 50 ml of assay buffer, 0.75 g of charcoal and 0.25 g of dextran) is added to each reaction. Plates are mixed 8 minutes on an orbital shaker at 4° C. Plates are then centrifuged at 3,000 rpm at 4° C. for 10 minutes. An aliquot of 120 μl of the mix is transferred to another 96-well plate and 175 μl of Wallac Optiphase “Hisafe 3” scintillation fluid is added to each well. Plates are sealed and shaken vigorously on an orbital shaker. After an incubation of 2 hrs, plates are read in a Wallac Microbeta counter. The data is used to calculate an IC50 and % Inhibition at 10 μM. The Kd for ^3H-dexamethasone for GR binding, ^3H-methyltrienolone for AR binding, ^3H-aldosterone for MR binding, or ^3H-methyltrienolone for PR binding, is determined by saturation binding. The IC50 values for test compounds are converted to Ki using Cheng-Prusoff equation and the Kd determined by saturation binding assay.\nBinding assay protocols for steroid hormone nuclear receptors similar to those described above can be readily designed by the ordinarily skilled artisan."}, "[2]": {"target": "T2, human androgen receptor (AR) (Homo sapiens, UniProt P10275)", "T2 construct": "expressed in transfected cells; host or cells: mouse myoblast C2C12 cells, transiently co-transfected with FuGENE", "T2 sequence (P10275 1-920)": "T1 sequence (P10275 1-920)", "assay": "C2C12 AR/ARE reporter assay", "format": "cell-based", "conditions": "average; for Emax: C2C12, read-out: C2C12 % Efficacy, versus maximum stimulation obtained with 10 nM methyltrienolone; for EC50: C2C12 EC50(nM), mouse myoblast C2C12 cells, luciferase reporter, 48 h", "protocol": "As an indicator of agonist activity in muscle tissue, the C2C12 AR/ARE reporter assay is performed. Briefly, mouse myoblast C2C12 cells are co-transfected using FuGENE™. […] Cells are transfected in T150 cm^2 flasks in DMEM media with 4% or 10% Fetal Bovine Serum (FBS). After a 5 hour incubation, transfected cells are trypsinized, plated in 96 well dishes in DMEM media containing 10% charcoal-stripped FBS, incubated for 2 h and then exposed to various concentrations of test compounds ranging from about 0.01 nM to 10 μM. After 48 h of incubations with compounds, cells are lysed and luciferase activity is determined using standard techniques. Data is fit to a 4 parameter-fit logistics to determine EC50 values. The % efficacy is determined versus maximum stimulation obtained with 10 nM methyltrienolone. […]"}, "[3]": {"tested_on": "castrated male ICR mice", "assay": "In vivo mouse model of efficacy and selectivity (castrated mice, tissue wet weights)", "conditions": "for % Efficacy: (ANOVA, p < 0.05): Levator Ani muscle wet weight vs castrated vehicle-only control x100, 10 mg/kg/d, two weeks; for Seminal vesicle and/or prostate weight gain: tissue selectivity indicator, castrated mice", "protocol": "Male ICR mice (8 weeks old) are castrated according to approved procedures (Taconic, N.Y.) and allowed to waste for eight weeks. Age-matched sham-operated mice are also prepared. (Sham-operated mice are animals that have been exposed to the same surgical procedures as castrated animals except their testes are not removed.) Animals are housed in a temperature-controlled room (24° C.) with a reversed 12 hour light/dark cycle (dark 10:00/22:00) and water and food are available ad libitum.\nTest compounds are administered to the animals using conventional vehicles. For example, for oral dosing 1% Sodium Carboxymethylcellulose (CMC)+0.25% Tween 80 in sterile H2O can be used for oral formulation and 6% Ethyl-alcohol (EtOH)+94% cyclodexitrane (CDX) can be used for subcutaneous injections. Castrated mice treated with Testosteron Enanthate (TE) (10 mg/kg/d) are used as a treatment positive control whereas castrated mice treated only with vehicle are used as treatment negative control. In addition, sham-operated mice treated with vehicle only are used as control for the surgical method.\nTest animals are dosed over a two week timeframe, orally or subcutaneously, with, for example, 0.3, 1, 3, 10 or 30 mg/kg/day of a compound of the present invention. After the two-week treatment, as an indicator of activity the wet weight of the Levator Ani muscle in the test group is determined and compared to the weight in the castrated, vehicle-only control group. The percent efficacy is then calculated as follows: (Wet weight in treatment group/Wet weight in control group)×100 As an indicator of tissue selective activity, the wet weight of the seminal vesicle from test animals is similarly compared to the weight of the seminal vesicles from the castrated, vehicle-only group. In addition, a comparison of the wet weight of the prostate glands from the drug-treated group, to the wet weight of the prostate glands removed from the castrated, vehicle-only group, may also be used as an indicator of tissue selective activity.\nTable II (see below) provides % efficacy data for a select sample of exemplified compounds of the present invention in an animal model essentially as described above. Animal models of efficacy and selectivity similar to those described above can be readily designed and performed by the ordinarily skilled artisan, for example, Eisenberg and Gilbert, J Pharmacol Exp Ther. 1950, 99(1), 38-44, provides an alternative rat model that may be employed to show in vivo efficacy.)"}}}
{"molecule": "Cc1c(N2CCCC2c2cccnc2)ccc(C#N)c1Cl", "note": "(stereo not shown) [Example 9]", "values": [{"measurement": "Ki", "setting": "[1]", "result": 1.3, "unit": "nM"}, {"measurement": "Emax", "setting": "[2]", "result": 90.7, "unit": "%"}, {"measurement": "EC50", "setting": "[2]", "result": 2.6, "unit": "nM"}, {"measurement": "% Efficacy: (ANOVA, p < 0.05)", "setting": "[3]; sc", "result": 186, "unit": "%"}, {"measurement": "Seminal vesicle and/or prostate weight gain", "setting": "[3]", "result": "no weight gain"}]}
{"molecule": "Cc1c(N2CCCC2c2ccc3c(c2)OCO3)ccc(C#N)c1Cl", "note": "(stereo not shown) [Example 12]", "values": [{"measurement": "Ki", "setting": "[1]", "result": 2.2, "unit": "nM"}, {"measurement": "Emax", "setting": "[2]", "result": 95.6, "unit": "%"}, {"measurement": "EC50", "setting": "[2]", "result": 12.4, "unit": "nM"}, {"measurement": "% Efficacy: (ANOVA, p < 0.05)", "setting": "[3]; po", "result": 164, "unit": "%"}, {"measurement": "Seminal vesicle and/or prostate weight gain", "setting": "[3]", "result": "no weight gain"}]}
{"molecule": "Cc1nnc(C2CCCN2c2ccc(C#N)c(Cl)c2C)[nH]1", "note": "(stereo not shown) [Example 29, 2-chloro-3-methyl-4-[2-(5-methyl-4H-1,2,4-triazol-3-yl)pyrrolidin-1-yl]benzonitrile]", "values": [{"measurement": "Ki", "setting": "[1]", "result": 58.9, "unit": "nM"}, {"measurement": "Emax", "setting": "[2]", "result": 83.9, "unit": "%"}, {"measurement": "EC50", "setting": "[2]", "result": 378, "unit": "nM"}]}
{"molecule": "Cc1c(N2CCCC2c2nnc(N)o2)ccc(C#N)c1Cl", "note": "(stereo not shown) [Example 30, 4-[2-(5-amino-1,3,4-oxadiazol-2-yl)pyrrolidin-1-yl]-2-chloro-3-methylbenzonitrile]", "values": [{"measurement": "Ki", "setting": "[1]", "result": 18.7, "unit": "nM"}, {"measurement": "Emax", "setting": "[2]", "result": 95.7, "unit": "%"}, {"measurement": "EC50", "setting": "[2]", "result": 37.9, "unit": "nM"}]}
{"molecule": "Cc1c(N2CC(O)CC2c2ccccc2)ccc(C#N)c1Cl", "note": "(stereo not shown) [Example 31, 2-Chloro-3-methyl-4-(4-hydroxy-2-phenyl-pyrrolidin-1-yl)-benzonitrile]", "values": [{"measurement": "Ki", "setting": "[1]", "result": 8.3, "unit": "nM"}, {"measurement": "Emax", "setting": "[2]", "result": 91.6, "unit": "%"}, {"measurement": "EC50", "setting": "[2]", "result": 20.7, "unit": "nM"}]}
